{"source": "patent US20010049368A1", "about": "“Method for treating or preventing depression” (priority 2000, published 2001)", "key": {"human NK-1 receptor": {"molecular_target": "T1, human NK-1 receptor (Homo sapiens, UniProt P25103)", "T1 construct": "expressed in transfected cells; host or cells: intact CHO (Chinese hamster ovary) cells", "T1 sequence (P25103 whole entry)": "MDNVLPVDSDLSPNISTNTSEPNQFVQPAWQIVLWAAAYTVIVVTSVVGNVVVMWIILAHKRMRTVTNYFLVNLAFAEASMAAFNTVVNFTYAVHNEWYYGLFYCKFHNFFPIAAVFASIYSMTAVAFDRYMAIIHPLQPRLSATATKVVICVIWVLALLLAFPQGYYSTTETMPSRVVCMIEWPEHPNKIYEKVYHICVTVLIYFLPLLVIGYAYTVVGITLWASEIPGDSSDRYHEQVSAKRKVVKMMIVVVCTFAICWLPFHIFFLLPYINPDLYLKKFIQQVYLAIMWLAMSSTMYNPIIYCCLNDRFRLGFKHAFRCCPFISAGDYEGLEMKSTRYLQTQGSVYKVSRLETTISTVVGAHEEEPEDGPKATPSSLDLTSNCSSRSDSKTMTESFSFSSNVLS", "test": "NK-1 receptor binding assay in intact CHO cells (125I-Tyr8-substance P)", "settings": "CHO cells expressing the human NK-1 receptor", "experimental": "NK-1 receptor binding assays are performed in intact Chinese hamster ovary (CHO) cells expressing the human NK-1 receptor using a modification of the assay conditions described by Cascieri et al, J. Pharmacol. Exp. Ther., 1992, 42, 458. Typically, the receptor is expressed at a level of 3×10^5 receptors per cell. Cells are grown in monolayer culture, detached from the plate with enzyme-free dissociation solution (Speciality Media Inc.), and washed prior to use in the assay. ^125I-Tyr^8-substance P (0.1 nM, 2000 Ci/mmol; New England Nuclear) is incubated in the presence or absence of test compounds (dissolved in 5 μl dimethylsulphoxide, DMSO) with 5×10^4 CHO cells. Ligand binding is performed in 0.25 ml of 50 mM Tris-HCl, pH7.5, containing 5 mM MnCl2, 150 mM NaCl, 0.02% bovine serum albumin (Sigma), 50 μg/ml chymostatin (Peninsula), 0.1 nM phenylmethylsulphonyl fluoride, 2 μg/ml pepstatin, 2 μg/ml leupeptin and 2.8 μg/ml furoyl saccharine. The incubation proceeds at room temperature until equilibrium is achieved (>40 minutes) and the receptor-ligand complex is harvested by filtration over GF/C filters pre-soaked in 0.1% polyethylenimine using a Tomtek 96-well harvester. Non-specific binding is determined using excess substance P (1 μM) and represents <10% of total binding."}, "[1]": {"system": "PDE IV inhibitor-induced emesis in the ferret", "test": "Ferret emesis: PDE4 inhibitors and neurokinin-1 receptor antagonists", "type": "in vivo", "settings": "NK-1 antagonist 3 mg kg-1 i.p. or s.c. 30 minutes prior to oral emetic dose of PDE IV inhibitor", "procedure": "Intracerebroventricular (i.c.v.) administration was performed following a surgical implantation of an i.c.v. guide cannula. Under isoflurane anaesthesia, a 22 gauge stainless steel guide cannula (total length=20 mm) was lowered 9 mm below the surface of the skull, at the midline, 2 mm anterior to the cross-suture of the posterior edge of the skull. The tip of the guide cannula is then positioned 3-5 mm directly above the area postrema. The guide cannula was fixed to the skull using 2 screws and dental acrylic cement. The animals received antibiotic (Clamoxyl LA, SmithKline Beecham, Surrey, U.K.; 15 mg kg^−1 s.c.) and analgesic injections (Zenecarp, C-Vet Limited, Edmounds, U.K.; 5 mg kg^−1 s.c.) and were housed in individual cages. They were allowed at least 1 week to recover. Intracerebroventricular administration of drugs was performed by inserting an injection unit of 24-25 mm (level of the area postrema) or 27 mm (for brain tissue injection) length into the guide cannula and infusing 2 μl of the drug solution (or vehicle) over 1 minute. The drugs were dissolved in DMSO or sterile water. […]\nAnti-emetic agents ondansetron (3 mg kg^−1 i.p.), and neurokinin-1 receptor antagonists (3 mg kg^−1 i.p. or s.c.) were administered 30 minutes prior to an oral challenge with an emetic dose of selected PDE IV inhibitors. […] The emetic response was monitored as described earlier. […]"}, "[2]": {"system": "emesis in ferrets (retches and vomits)", "test": "Ferret emesis: PDE4 inhibitors and alpha-2 adrenoreceptor agonists/antagonists", "settings": "for emesis (retching and vomiting) induced by the drug itself: yohimbine by intraperitoneal injection, clonidine 62.5-250 μg kg-1", "experimental": "Experiments were conducted using male, adult, fitch or albino ferrets. They were housed in a humidity and temperature controlled environment and fed on carnivore diet (standard cat food) once a day with water ad libitum. On the day of the experiment, the animals were put in individual observation cages and left to habituate for at least 30 minutes.\nDrugs were dissolved immediately before use in 100% PEG 300 or sterile water). Oral administration (p.o.) was performed using a 10 cm feeding tube and drugs were administered in a dosing volume of 1 ml kg^−1. Subcutaneous (s.c.) injections were performed at the base of the neck, using sterile water or PEG 300 as the vehicle. The injection volume used was 0.5-1.0 ml kg^−1. For intravenous (i.v.) injections, the left jugular vein was catheterized with a polyethene cannula under halothane anaesthesia. Drugs were dissolved in PEG 300 50% in sterile water and injected in a volume of 1 ml-kg^−1. The vein was then ligated, the incision closed and the animals observed continuously thereafter.\nFerrets were pre-treated with the alpha2-adrenoceptor antagonist, yohimbine."}}, "data": [{"compound": "C[C@@H](O[C@H]1OCCN(Cc2nn[nH]c2CN(C)C)[C@H]1c1ccccc1)c1cc(C(F)(F)F)cc(C(F)(F)F)c1", "note": "[2-(R)-(1-(R)-(3,5-bis(trifluoromethyl)phenyl)ethoxy)-4-(5-(N,N-dimethylamino)methyl-1,2,3-triazol-4-yl)methyl-3-(S)-phenylmorpholine]", "values": [{"measurement": "IC50", "setting": "human NK-1 receptor", "value": 0.25, "unit": "nM"}]}, {"compound": "COc1ccccc1CN[C@H]1CCCN[C@H]1c1ccccc1", "note": "[CP-99,994]", "values": [{"measurement": "effect on PDE IV inhibitor-induced emesis", "setting": "[1]", "value": "abolished"}]}, {"compound": "CS(=O)(=O)NCCN1C(=O)NC[C@]12CCN1CCc3c(oc4ccccc34)[C@@H]1C2", "note": "[MK-467]", "values": [{"measurement": "emesis (retching and vomiting) induced by the drug itself", "setting": "[2]", "value": "Emesis was also recorded"}]}, {"compound": "CN1CC[C@]2(CCN3CCc4c(oc5ccccc45)[C@@H]3C2)N(C)C1=O", "note": "[MK-912]", "values": [{"measurement": "emesis (retching and vomiting) induced by the drug itself", "setting": "[2]", "value": "Emesis was also recorded"}]}, {"compound": "Clc1cccc(Cl)c1N=C1NCCN1", "note": "[clonidine]", "values": [{"measurement": "number of retches and vomits induced by RS 14203", "setting": "[2]; RS 14203 1 mg kg-1 p.o., clonidine 62.5-250 μg kg-1 pre-treatment", "value": "dose-dependently decreased"}, {"measurement": "latency of onset of RS 14203-induced emesis", "setting": "[2]; RS 14203 1 mg kg-1 p.o., clonidine pre-treatment", "value": "increased"}, {"measurement": "emesis induced by CT-2450", "setting": "[2]; clonidine 250 μg kg-1, CT-2450 30 mg kg-1 p.o., all animals treated", "value": "abolished"}, {"measurement": "animals with complete protection against R-rolipram-induced emesis", "setting": "[2]; clonidine 250 μg kg-1, R-rolipram 3 mg kg-1 p.o.", "value": "two out of three"}, {"measurement": "animals with complete protection against RS 14203-induced emesis", "setting": "[2]; clonidine 250 μg kg-1, RS 14203 1 mg kg-1 p.o.", "value": "five out of six"}]}, {"compound": "COC(=O)[C@@H]1[C@H]2C[C@H]3c4[nH]c5ccccc5c4CCN3C[C@@H]2CC[C@@H]1O", "note": "[yohimbine]", "values": [{"measurement": "emesis (retching and vomiting) induced by the drug itself", "setting": "[2]", "value": "induced retching and vomiting in all ferrets treated"}]}]}
